Measured values from US20140364434A1, “Biomarkers for Prediction of Response to PARP Inhibition in Breast Cancer” (The Regents of the University of Califonia, priority 2011, published 2014).
Where two headings read alike, the source gives them in different places. One block for each molecule: values may come before it.

Experiments:
[1] = test system: hereditary BRCA1/2-related breast cancer; conditions: cited from earlier work
[2] = test system: sporadic triple negative breast cancer; conditions: cited from earlier work
[3] = test system: metastatic triple negative breast cancer; conditions: cited from earlier work
[4] = test system: BT20; assay: growth inhibition assay, sensitivity to olaparib (SF50); format: cell-based, human
Experimental: (§1) Cells were exposed continuously to the inhibitor, and medium and inhibitor were replaced every four days. After 15 days, cells were fixed and stained with sulphorhodamine-B (Sigma, St. Louis, USA) and a colorimetric assay performed as described previously. Surviving fractions (SFs) were calculated and drug sensitivity curves determined with the Four Parameter Logistic Regression model as previously described. […] Nature 2005, 434(7035):917-921, Edwards S L, Brough R, Lord […], Boyd […], Ashworth A: […] Nature 2008, 451(7182):1111-1115]. […] Oncogene 30 (29):3222-3233. doi:10.1038/one.2011.421). A detailed description of the availability and preprocessing of all molecular data sets is provided below and [[…], et al., (2012) Subtype and pathway specific responses to anticancer compounds in breast cancer. […] These cells mirror many of the transcriptional and genomic characteristics of primary breast tumors and have been used to model responses to a large number of experimental and approved therapeutic compounds [Neve R M, Chin […], Clark L, Bayani N, Coppe J P, Tong F et al: A collection of breast cancer cell lines for the study of functionally distinct cancer subtypes. […] (2012) Subtype and pathway specific responses to anticancer compounds in breast cancer. […] Cell lines were divided into a group of 15 resistant and 7 sensitive cell lines, based on an SF50 threshold of 1 μM. […] Surviving fractions (SFs) were calculated and drug sensitivity curves determined with the Four Parameter Logistic Regression model as previously described [Farmer H, McCabe N, Lord C J, Tutt A N, Johnson D A, Richardson […], Dillon […], Knights C et al: Targeting the DNA repair defect in BRCA mutant cells as a therapeutic strategy. Nature 2005, 434(7035):917-921].\

[5] = test system: BT474; assay: as above; format: cell-based, human
Experimental: as §1

[6] = test system: BT549; assay: as above; format: cell-based, human
Experimental: as §1

[7] = test system: CAMA1; assay: as above; format: cell-based, human
Experimental: as §1

[8] = test system: HCC1143; assay: as above; format: cell-based, human
Experimental: as §1

[9] = test system: HCC1428; assay: as above; format: cell-based, human
Experimental: as §1

[10] = test system: HCC1954; assay: as above; format: cell-based, human
Experimental: as §1

[11] = test system: HCC202; assay: as above; format: cell-based, human
Experimental: as §1

[12] = test system: HCC38; assay: as above; format: cell-based, human
Experimental: as §1

[13] = test system: HCC70; assay: as above; format: cell-based, human
Experimental: as §1

[14] = test system: HS578T; assay: as above; format: cell-based, human
Experimental: as §1

[15] = test system: MCF7; assay: as above; format: cell-based, human
Experimental: as §1

[16] = test system: MDAMB134VI; assay: as above; format: cell-based, human
Experimental: as §1

[17] = test system: MDAMB157; assay: as above; format: cell-based, human
Experimental: as §1

[18] = test system: MDAMB231; assay: as above; format: cell-based, human
Experimental: as §1

[19] = test system: MDAMB436; assay: as above; format: cell-based, human
Experimental: as §1

[20] = test system: MDAMB453; assay: as above; format: cell-based, human
Experimental: as §1

[21] = test system: MDAMB468; assay: as above; format: cell-based, human
Experimental: as §1

[22] = test system: SKBR3; assay: as above; format: cell-based, human
Experimental: as §1

[23] = test system: SUM149PT; assay: as above; format: cell-based, human
Experimental: as §1

[24] = test system: SUM159PT; assay: as above; format: cell-based, human
Experimental: as §1

[25] = test system: T47D; assay: as above; format: cell-based, human
Experimental: as §1

[26] = test system: panel of 22 breast cancer cell lines; assay: growth inhibition assay, whole panel (SF50); format: cell-based, human
Experimental: as §1

[27] = test system: BRCA1/2 mutation carriers; conditions: monotherapy; BRCA1/2 mutation carriers who had previously received several courses of chemotherapy; cited from earlier work
[28] = test system: carriers of a BRCA1/2 mutation and patients without known BRCA mutations; conditions: cited from earlier work
[29] = heavily pre-treated sporadic triple negative breast cancer
[30] = read-out: Olaparib SF50, continuous exposure 15 days, sulphorhodamine-B
[31] = read-out: olaparib SF50, Table 9

Structure (SMILES): NC(=O)c1cccc2cn(-c3ccc([C@@H]4CCCNC4)cc3)nc12 [MK-4827]
- efficacy as single agent [1]: efficacious

Structure (SMILES): C[C@]1(c2nc3c(C(N)=O)cccc3[nH]2)CCCN1 [ABT-888]
- activity of the combination with temozolomide [2, 29]: no evidence of activity
- efficacy combined with DNA-damaging agent temozolomide [1]: efficacious

Structure (SMILES): NC(=O)c1ccc(I)c([N+](=O)[O-])c1 [BSI-201]
- survival, phase II clinical trial ([3]; combined with gemcitabine/carboplatin chemotherapy): dramatic survival advantage
- confirmation in randomized, open-label phase III study ([3]; combined with gemcitabine/carboplatin): could not be confirmed

- IC50 [4, 30]: > 50 µM
- IC50 [4, 31]: > 50 µM
- IC50 [5, 30]: 32 µM
- IC50 [5, 31]: 32 µM
- IC50 [6, 30]: 21.4 µM
- IC50 [6, 31]: 21.4 µM
- IC50 [8, 30]: 0.0211 µM
- IC50 [8, 31]: 0.0211 µM
- IC50 [9, 30]: > 50 µM
- IC50 [9, 31]: > 50 µM
- IC50 [10, 30]: 15.5 µM
- IC50 [10, 31]: 15.5 µM
- IC50 [11, 30]: 0.413 µM
- IC50 [11, 31]: 0.413 µM
- IC50 [12, 30]: > 50 µM
- IC50 [12, 31]: > 50 µM
- IC50 [15, 30]: 14.7 µM
- IC50 [15, 31]: 14.7 µM
- IC50 [16, 30]: 30.9 µM
- IC50 [16, 31]: 30.9 µM
- IC50 [17, 30]: 2.41 µM
- IC50 [17, 31]: 2.41 µM
- IC50 [18, 30]: 30 µM
- IC50 [18, 31]: 30 µM
- IC50 [19, 30]: 0.00044 µM
- IC50 [19, 31]: 0.00044 µM
- IC50 [20, 30]: 0.00915 µM
- IC50 [20, 31]: 0.00915 µM
- IC50 [21, 30]: 0.514 µM
- IC50 [21, 31]: 0.514 µM
- IC50 [22, 30]: > 50 µM
- IC50 [22, 31]: > 50 µM
- IC50 [25, 30]: 19.9 µM
- IC50 [25, 31]: 19.9 µM
- IC50 ([26]; 5 cell lines of the panel, read-out: SF50 not reached at the maximum treatment concentration): > 50 µM
Structure (SMILES): O=C(c1cc(Cc2n[nH]c(=O)c3ccccc23)ccc1F)N1CCN(C(=O)C2CC2)CC1 [Olaparib]
- IC50 [7, 30]: > 50 µM
- IC50 [7, 31]: > 50 µM
- IC50 [13, 30]: 0.655 µM
- IC50 [13, 31]: 0.655 µM
- IC50 [14, 30]: 6.55 µM
- IC50 [14, 31]: 6.55 µM
- IC50 [23, 30]: 0.0161 µM
- IC50 [23, 31]: 0.0161 µM
- IC50 [24, 30]: 16.3 µM
- IC50 [24, 31]: 16.3 µM
- IC50 ([26]; read-out: concentration of olaparib needed to reduce survival to 50% (SF50), lower end of the range, lowest SF50 among 22 breast cancer cell lines): 0.00044 µM
- IC50 ([26]; read-out: concentration of olaparib needed to reduce survival to 50% (SF50), upper end of the range, highest SF50 reached among 22 breast cancer cell lines): 32 µM
- objective response rates [27]: 41%
- results as single agent [2, 29]: negative results
- response to monotherapy, phase 2 trial ([2]; olaparib monotherapy, triple negative breast cancer patients): largely did not respond
- efficacy as single agent [1]: efficacious
- antitumor activity, phase 1 trial ([28]; BRCA1/2 mutation carriers vs patients without known BRCA mutations): has antitumor activity for the majority of carriers of a BRCA1/2 mutation but not for patients without known BRCA mutations
- adverse effects, phase 1 trial ([28]; compared with conventional chemotherapy): only a few of the adverse effects of conventional chemotherapy
